From ChEMBL document CHEMBL1201862, “PubChem BioAssay data set” (2004)
Activity calls are given as the source filed them.

Columns and labels:
[1] = biological target: Disintegrin and metalloproteinase domain-containing protein 17 (Homo sapiens, UniProt P78536); experiment: ADAM17 protease inhibitors, dose response, counter-screen for ADAM10 exosite inhibitor project, biochemical, quenched FRET substrate (AID 743253)
[2] = tested on: Streptococcus; experiment: Group A Streptococcus viability loss, dose response, counter-screen for streptokinase expression inhibitor project, luminescence, BacTiterGlo (AID 1915); type: functional, organism-based;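 note: potency for reduction of bacterial viability or growth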
[3] = tested on: Streptococcus sp. 'group A'; experiment: growth inhibition of control SK(-) GAS strain, dose response, counter-screen for streptokinase expression inhibitor project, luminescence, kanamycin, BacTiterGlo, confirmation (AID 1900); type: functional, organism-based
[4] = biological target: X-box-binding protein 1 (Homo sapiens, UniProt P17861); type: functional, Cricetulus griseus;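 note: confirmatory dose-response counter-screen serving a CHOP assay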
X-box-binding protein 1, sequence (P17861 whole entry): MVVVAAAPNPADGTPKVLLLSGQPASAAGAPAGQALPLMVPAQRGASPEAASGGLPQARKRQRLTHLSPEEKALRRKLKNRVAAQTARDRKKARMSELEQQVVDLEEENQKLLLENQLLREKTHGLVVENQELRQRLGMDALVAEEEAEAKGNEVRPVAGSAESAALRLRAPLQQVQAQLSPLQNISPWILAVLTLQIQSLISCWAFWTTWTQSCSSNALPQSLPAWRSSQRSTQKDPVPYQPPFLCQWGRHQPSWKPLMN

[5] = biological target: T1, Streptokinase A (Streptococcus pyogenes serotype M1, UniProt P10520); experiment: S. pyogenes streptokinase expression inhibitors, potency, dose response, plasminogen activation absorbance, OD405 (AID 1914); type: functional, Streptococcus pyogenes M1 GAS;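 note: secreted streptokinase activity via plasminogen activation per viability signal from cell pellet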
T1 sequence (P10520 whole entry): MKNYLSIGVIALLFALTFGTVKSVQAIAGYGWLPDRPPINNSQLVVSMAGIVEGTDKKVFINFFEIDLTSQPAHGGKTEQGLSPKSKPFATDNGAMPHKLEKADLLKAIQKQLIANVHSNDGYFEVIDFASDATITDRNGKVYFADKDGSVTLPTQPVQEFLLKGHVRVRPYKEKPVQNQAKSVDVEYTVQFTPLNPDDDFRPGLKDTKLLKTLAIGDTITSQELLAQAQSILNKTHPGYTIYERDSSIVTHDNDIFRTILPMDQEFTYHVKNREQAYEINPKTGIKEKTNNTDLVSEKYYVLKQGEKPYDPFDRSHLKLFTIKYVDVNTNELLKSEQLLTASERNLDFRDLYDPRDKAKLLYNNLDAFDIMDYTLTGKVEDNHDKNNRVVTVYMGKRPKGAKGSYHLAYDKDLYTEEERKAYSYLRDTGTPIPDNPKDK

[6] = biological target: Estrogen receptor beta (Homo sapiens, UniProt Q92731);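 note: recombinant ER-beta bound to coactivator SRC1 peptide in presence of estradiol agonist; inhibitors block coactivator peptide binding and lower the FRET signal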
[7] = tested on: H9c2; experiment: cells; type: functional, cell-based; details: Rattus norvegicus, H9c2, Myocardium;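 note: confirmatory concentration-response retest of ultra-high-throughput screening hits for modulation of myocardial damage; cell death induced by hydrogen peroxide oxidative stress; compound pretreatment for 60 min then peroxide exposure for 2 h; potency is for protecting the cells against peroxide damage rather than for killing them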
[8] = biological target: 14-3-3 protein gamma (Homo sapiens, UniProt P61981); experiment: modulators of 14-3-3 gamma client binding – dose response (AID 711); type: functional
14-3-3 protein gamma, sequence (P61981 whole entry): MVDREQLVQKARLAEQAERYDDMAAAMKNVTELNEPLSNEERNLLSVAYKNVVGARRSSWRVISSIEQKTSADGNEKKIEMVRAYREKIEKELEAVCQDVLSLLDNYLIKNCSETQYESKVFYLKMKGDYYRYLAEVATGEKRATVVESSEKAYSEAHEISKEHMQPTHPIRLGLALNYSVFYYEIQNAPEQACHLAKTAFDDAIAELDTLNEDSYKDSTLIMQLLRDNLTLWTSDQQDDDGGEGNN

[9] = HEp-2 cell cytotoxicity, dose response, cytotoxicity control for RSV inhibitor project, HTS (AID 2410); type: functional; details: human respiratory syncytial virus
[10] = biological target: Transitional endoplasmic reticulum ATPase (Homo sapiens, UniProt P55072); experiment: p97 ATPase inhibitors, dose response, biochemical (AID 1534)
Transitional endoplasmic reticulum ATPase (Homo sapiens, UniProt P55072), sequence (P55072 whole entry): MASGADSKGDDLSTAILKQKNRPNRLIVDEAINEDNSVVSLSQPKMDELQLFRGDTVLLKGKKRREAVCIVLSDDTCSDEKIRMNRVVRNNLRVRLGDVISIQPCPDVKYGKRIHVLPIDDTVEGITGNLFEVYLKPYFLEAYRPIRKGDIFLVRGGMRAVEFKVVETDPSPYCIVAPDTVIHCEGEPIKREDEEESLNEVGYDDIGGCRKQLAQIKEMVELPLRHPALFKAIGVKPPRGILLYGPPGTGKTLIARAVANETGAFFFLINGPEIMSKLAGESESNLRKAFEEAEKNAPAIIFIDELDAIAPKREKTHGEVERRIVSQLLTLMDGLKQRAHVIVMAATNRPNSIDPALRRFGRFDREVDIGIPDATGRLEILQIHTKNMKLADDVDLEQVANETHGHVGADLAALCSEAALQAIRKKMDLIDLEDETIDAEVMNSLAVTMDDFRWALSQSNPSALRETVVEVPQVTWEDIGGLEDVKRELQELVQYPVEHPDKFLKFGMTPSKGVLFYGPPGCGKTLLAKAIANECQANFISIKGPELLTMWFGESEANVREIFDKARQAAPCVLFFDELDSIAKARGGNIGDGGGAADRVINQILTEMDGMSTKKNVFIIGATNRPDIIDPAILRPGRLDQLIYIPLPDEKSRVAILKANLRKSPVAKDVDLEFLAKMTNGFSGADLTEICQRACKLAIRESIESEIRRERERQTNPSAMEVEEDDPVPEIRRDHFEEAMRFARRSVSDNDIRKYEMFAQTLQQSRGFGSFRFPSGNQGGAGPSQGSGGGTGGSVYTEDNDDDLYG

[11] = biological target: Transitional endoplasmic reticulum ATPase (Homo sapiens, UniProt P55072, C522A); experiment: C522A mutant p97 ATPase inhibitors, dose response, counter-screen for p97 inhibitor project, biochemical, luminescence (AID 1544)
Transitional endoplasmic reticulum ATPase (Homo sapiens, UniProt P55072, C522A), sequence (P55072 2-806 C522A limits assumed): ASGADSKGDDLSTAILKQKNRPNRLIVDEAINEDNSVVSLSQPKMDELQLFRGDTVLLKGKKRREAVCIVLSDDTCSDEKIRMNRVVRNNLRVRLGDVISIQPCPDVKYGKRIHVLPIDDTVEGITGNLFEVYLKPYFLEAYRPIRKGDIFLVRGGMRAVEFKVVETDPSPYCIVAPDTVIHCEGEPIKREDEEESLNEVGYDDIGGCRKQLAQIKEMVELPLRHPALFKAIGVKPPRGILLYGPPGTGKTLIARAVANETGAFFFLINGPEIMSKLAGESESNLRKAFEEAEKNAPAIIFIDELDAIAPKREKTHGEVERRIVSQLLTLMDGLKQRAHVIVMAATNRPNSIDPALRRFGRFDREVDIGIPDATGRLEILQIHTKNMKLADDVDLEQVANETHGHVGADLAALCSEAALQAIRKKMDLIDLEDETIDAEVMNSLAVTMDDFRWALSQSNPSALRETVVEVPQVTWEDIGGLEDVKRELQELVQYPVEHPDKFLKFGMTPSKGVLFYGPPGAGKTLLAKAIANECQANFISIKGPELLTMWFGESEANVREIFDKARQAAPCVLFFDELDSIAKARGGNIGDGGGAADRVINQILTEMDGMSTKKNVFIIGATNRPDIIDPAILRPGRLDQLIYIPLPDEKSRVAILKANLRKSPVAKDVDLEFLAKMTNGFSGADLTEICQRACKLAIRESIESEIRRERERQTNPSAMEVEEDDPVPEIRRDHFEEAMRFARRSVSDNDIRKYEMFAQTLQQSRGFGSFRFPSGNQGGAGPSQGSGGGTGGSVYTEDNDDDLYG

[12] = biological target: Peroxisome proliferator-activated receptor gamma/Nuclear receptor coactivator 1 (Homo sapiens, UniProt P37231); type: functional;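 note: agonist potency as compounds enhance coactivator SRC-1 recruitment to PPARgamma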
[13] = biological target: Peroxisome proliferator-activated receptor gamma/Nuclear receptor coactivator 2 (Homo sapiens, UniProt P37231); type: functional;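 note: agonist potency for raising coactivator recruitment to the receptor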
[14] = biological target: Peroxisome proliferator-activated receptor gamma/Nuclear receptor coactivator 3 (Homo sapiens, UniProt P37231); type: functional;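 note: agonist potency for raising coactivator recruitment to the receptor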
Peroxisome proliferator-activated receptor gamma/Nuclear receptor coactivator 3, sequence (P37231 whole entry): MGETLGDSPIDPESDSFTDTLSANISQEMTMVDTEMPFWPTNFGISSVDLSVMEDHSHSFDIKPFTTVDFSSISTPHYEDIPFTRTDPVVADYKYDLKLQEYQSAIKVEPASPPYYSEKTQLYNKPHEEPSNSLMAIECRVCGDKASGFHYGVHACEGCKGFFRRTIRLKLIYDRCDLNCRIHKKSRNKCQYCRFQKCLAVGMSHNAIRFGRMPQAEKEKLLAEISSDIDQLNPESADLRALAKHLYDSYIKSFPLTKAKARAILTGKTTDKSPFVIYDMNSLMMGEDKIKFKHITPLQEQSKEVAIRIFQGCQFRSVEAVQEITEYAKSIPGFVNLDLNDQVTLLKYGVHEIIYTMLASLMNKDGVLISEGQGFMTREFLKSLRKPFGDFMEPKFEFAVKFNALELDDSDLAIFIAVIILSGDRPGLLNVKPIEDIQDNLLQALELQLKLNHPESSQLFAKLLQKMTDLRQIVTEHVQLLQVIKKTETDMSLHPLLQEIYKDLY
Peroxisome proliferator-activated receptor gamma/Nuclear receptor coactivator 3, sequence (Q9Y6Q9 whole entry, further chain): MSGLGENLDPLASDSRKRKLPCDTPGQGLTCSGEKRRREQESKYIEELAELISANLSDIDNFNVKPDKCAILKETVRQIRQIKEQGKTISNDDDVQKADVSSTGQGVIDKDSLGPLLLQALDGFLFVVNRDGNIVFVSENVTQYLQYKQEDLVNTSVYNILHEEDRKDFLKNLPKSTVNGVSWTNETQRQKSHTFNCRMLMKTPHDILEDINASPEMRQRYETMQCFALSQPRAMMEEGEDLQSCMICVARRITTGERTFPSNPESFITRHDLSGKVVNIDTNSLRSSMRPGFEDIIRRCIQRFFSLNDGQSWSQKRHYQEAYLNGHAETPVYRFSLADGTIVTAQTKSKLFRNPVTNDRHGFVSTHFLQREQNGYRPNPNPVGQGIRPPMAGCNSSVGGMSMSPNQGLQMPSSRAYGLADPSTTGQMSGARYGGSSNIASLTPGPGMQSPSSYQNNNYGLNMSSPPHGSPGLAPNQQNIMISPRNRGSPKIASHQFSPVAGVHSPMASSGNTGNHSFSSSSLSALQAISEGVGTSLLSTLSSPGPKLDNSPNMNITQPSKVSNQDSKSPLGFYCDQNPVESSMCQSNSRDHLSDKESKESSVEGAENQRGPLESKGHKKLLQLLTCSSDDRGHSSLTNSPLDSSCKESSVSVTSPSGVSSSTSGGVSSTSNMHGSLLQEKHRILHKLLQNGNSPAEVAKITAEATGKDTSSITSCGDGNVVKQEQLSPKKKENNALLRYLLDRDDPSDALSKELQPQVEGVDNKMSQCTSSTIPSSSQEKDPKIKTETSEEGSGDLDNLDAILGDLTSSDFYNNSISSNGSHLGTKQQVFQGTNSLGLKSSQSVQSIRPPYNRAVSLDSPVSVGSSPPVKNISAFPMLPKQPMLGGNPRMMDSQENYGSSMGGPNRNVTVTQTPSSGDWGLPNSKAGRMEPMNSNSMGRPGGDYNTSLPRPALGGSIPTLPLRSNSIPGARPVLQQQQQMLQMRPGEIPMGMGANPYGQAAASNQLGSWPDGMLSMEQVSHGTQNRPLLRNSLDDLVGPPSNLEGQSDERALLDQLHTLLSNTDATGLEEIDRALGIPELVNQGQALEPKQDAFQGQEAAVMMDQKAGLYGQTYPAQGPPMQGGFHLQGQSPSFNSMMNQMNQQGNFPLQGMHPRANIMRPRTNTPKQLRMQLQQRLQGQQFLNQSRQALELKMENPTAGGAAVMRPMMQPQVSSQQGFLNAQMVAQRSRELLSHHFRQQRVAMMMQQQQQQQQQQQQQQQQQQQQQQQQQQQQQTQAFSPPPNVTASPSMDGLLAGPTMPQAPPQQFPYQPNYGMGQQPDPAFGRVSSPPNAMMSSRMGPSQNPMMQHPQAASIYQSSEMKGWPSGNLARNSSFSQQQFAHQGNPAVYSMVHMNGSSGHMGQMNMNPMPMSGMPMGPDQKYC

[15] = biological target: T2, Heat shock factor protein 1 (Mus musculus, UniProt P38532); experiment: inhibition of MG132-induced HSE-luciferase signal, confirmation, cell-based, NIH3T3, luminescence, dose retest (AID 2382); type: functional;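 note: NIH3T3 fibroblasts with HSF1-driven luciferase reporter stressed by proteasome inhibitor MG132; luminescence from HSF1-driven luciferase expression after 8 hours of MG132 stress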
T2 sequence (P38532 whole entry): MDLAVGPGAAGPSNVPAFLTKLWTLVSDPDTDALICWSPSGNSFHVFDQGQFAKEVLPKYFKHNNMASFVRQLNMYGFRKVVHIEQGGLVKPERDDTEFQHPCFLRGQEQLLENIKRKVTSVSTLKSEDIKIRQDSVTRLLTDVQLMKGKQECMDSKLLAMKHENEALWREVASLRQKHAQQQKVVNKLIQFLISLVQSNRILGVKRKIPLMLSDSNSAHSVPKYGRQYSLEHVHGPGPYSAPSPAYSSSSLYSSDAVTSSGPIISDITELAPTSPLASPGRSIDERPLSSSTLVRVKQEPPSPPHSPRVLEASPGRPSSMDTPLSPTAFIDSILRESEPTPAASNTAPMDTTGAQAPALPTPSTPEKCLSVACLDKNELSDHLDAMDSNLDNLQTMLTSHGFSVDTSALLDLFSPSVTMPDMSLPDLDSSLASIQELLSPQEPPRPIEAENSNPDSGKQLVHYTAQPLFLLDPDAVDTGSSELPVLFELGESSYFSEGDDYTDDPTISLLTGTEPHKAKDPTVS

[16] = A Cell Based Secondary Assay To Explore Cytotoxicity of Compounds that Sensitize Mycobacterium Tuberculosis to Beta-Lactam Antibiotics.; type: functional
[17] = cytotoxicity in HEK-293T cells, dose response, cytotoxicity control for BCR NF-kB inhibitor project, luminescence, B-cell screen hits (AID 489021); type: functional, cell-based;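 note: HEK-293T cells carrying an NF-kB luciferase reporter; cells exposed to compound for about 14 hours before viability readout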
[18] = biological target: NS3 (Hepatitis C virus, UniProt A3EZJ3); experiment: PubChem AID 2173; set-up: species or system Hepacivirus hominis
NS3, sequence (A3EZJ3 whole entry): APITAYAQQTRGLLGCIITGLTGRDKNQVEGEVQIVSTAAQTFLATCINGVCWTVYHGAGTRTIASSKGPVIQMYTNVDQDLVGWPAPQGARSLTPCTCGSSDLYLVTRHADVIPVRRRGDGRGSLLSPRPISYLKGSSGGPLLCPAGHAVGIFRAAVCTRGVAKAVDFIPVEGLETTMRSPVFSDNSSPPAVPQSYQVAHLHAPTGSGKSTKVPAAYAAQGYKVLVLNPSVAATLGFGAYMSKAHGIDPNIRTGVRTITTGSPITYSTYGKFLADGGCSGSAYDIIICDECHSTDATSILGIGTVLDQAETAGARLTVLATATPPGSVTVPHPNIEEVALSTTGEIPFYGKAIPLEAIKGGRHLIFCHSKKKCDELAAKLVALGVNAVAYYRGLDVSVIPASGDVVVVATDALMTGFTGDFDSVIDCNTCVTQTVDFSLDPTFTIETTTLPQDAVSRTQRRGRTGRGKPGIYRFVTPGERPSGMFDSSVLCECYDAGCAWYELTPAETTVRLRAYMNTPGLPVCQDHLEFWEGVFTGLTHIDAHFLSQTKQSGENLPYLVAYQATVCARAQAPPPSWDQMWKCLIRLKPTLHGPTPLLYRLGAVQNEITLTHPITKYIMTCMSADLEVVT

[19] = growth suppression of beta-catenin-knockout colon cells, dose response, cell-based, HCT116, human colon tumor (AID 1045); type: functional;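 note: HCT116 colon tumor cells with beta catenin knocked out; cells exposed to compound for 60 hours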
[20] = Luminescence Cell-Based Dose Retest to Confirm Inhibitors of Cancer Stem Cells. [Related pubchem assays (depositor defined):AID2717, AID2721]; type: functional; details: Homo sapiens
[21] = growth suppression of PTEN-null colon cells, dose response, cell-based, HCT116 PTEN knockout (AID 1047); type: functional;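 note: HCT116 colon tumor cells with PTEN knocked out; cells exposed to compound for 60 hours before readout; potency for loss of cell viability measured by luminescence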
[22] = biological target: T3, Alkaline phosphatase, tissue-nonspecific isozyme (Homo sapiens, UniProt P05186)
T3 sequence (P05186 whole entry): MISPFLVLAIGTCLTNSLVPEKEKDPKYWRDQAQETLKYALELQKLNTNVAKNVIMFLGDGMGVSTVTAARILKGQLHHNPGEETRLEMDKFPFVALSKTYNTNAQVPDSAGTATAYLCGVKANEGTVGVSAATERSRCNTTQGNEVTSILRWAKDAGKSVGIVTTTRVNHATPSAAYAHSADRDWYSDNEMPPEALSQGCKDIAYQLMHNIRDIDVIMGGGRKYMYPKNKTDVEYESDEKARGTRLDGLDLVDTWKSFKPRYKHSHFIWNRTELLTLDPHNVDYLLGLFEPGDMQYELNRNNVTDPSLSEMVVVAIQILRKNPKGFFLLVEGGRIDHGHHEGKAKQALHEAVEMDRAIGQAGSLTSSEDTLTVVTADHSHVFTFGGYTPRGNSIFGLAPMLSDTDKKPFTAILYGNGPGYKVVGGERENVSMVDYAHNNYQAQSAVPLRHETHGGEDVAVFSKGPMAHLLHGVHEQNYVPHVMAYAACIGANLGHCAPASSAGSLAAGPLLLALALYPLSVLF

[23] = biological target: Sphingosine 1-phosphate receptor 4 (Homo sapiens, UniProt O95977); experiment: Fluorescence dose response cell-based high throughput screening assay for antagonists of the Sphingosine 1-Phosphate Receptor 4 (S1P4). [Related pubchem assays: 1524 (Confirmation in triplicates.), 1510 (Primary screen.)]; type: functional
[24] = inhibitors of intracellular T. cruzi replication, confirmation, NIH3T3 host cells, beta-gal luminescence (AID 2044); type: functional, cell-based;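 note: intracellular parasites grown in NIH/3T3 mouse fibroblasts as host cells; luminescent beta-galactosidase reporter signal from transgenic T. cruzi replicating inside host cells; inhibitors lower the luminescence signal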
[25] = cells
[26] = cytotoxicity toward NIH3T3 fibroblasts, dose response, counter-screen, cell-based, ATP luminescence, mouse fibroblasts (AID 2010); type: functional;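 note: cells exposed to compound for about 90 hours before reading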
[27] = Luminescence Cell-Based Dose Confirmation HTS to Identify Inhibitors of Polyadenylation.; type: functional
[28] = biological target: Nonstructural protein 1 (Influenza A virus, UniProt Q194T2); type: functional, Influenza A virus (A/California/07/2009(H1N1))
[29] = biological target: T4, Mannose-6-phosphate isomerase (Homo sapiens, UniProt P34949); experiment: human PMI inhibitors, high substrate, primary screen, biochemical, fluorescence intensity, high mannose 6-phosphate (AID 1220)
T4 sequence (P34949 whole entry): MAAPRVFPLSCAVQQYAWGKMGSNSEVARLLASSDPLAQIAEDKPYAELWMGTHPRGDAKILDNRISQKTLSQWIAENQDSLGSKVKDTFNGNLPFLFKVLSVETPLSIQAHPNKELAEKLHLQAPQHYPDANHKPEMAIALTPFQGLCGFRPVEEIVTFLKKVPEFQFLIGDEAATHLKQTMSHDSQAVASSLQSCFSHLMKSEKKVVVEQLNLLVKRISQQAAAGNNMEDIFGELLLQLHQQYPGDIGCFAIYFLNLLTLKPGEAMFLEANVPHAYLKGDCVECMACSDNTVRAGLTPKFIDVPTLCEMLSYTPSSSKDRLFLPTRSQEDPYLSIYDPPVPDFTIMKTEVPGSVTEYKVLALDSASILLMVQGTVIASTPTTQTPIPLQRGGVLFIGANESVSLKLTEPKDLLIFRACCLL

[30] = tested on: Vero; experiment: Vero cell cytotoxicity, cytotoxicity control for flavivirus capping enzyme inhibitors (AID 588742); type: functional; details: Chlorocebus sabaeus
[31] = biological target: T5, Probable nicotinate-nucleotide adenylyltransferase (Staphylococcus aureus (strain N315), UniProt P65502); type: functional, Staphylococcus aureus subsp. aureus N315;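 for IC50 Mean: confirmatory dose-response retesting of NadD inhibitor hits first found in an ultra-high-throughput screen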
T5 sequence (P65502 whole entry): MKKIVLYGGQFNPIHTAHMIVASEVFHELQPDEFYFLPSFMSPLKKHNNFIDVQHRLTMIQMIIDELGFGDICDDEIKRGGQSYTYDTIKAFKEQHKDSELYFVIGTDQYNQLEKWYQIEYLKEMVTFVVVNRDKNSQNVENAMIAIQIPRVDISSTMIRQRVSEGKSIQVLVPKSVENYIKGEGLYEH

[32] = biological target: T5, Probable nicotinate-nucleotide adenylyltransferase; type: functional, Staphylococcus aureus subsp. aureus N315; details: read-out: IC50_Mean
[33] = biological target: Induced myeloid leukemia cell differentiation protein Mcl-1 (Homo sapiens, UniProt Q07820); type: functional
[34] = biological target: Genome polyprotein (Hepatitis C virus, UniProt Q2Q167); experiment: HCV core protein dimerization inhibitors, dose response, biochemical, TR-FRET (AID 2159); set-up: species or system Hepacivirus hominis;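 note: blocks dimerization of HCV core protein measured by TR-FRET between tagged core106 pairs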
Genome polyprotein, sequence (Q2Q167 whole entry): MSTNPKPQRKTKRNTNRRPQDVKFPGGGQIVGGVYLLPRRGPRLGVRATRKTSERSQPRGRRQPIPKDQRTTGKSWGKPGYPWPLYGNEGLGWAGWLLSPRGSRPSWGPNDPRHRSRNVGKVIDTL
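Throughout, for AC50: cells exposed to compound for roughly 70 hours or longer before luminescence read.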

COc1ccc(CCN2C(=O)c3[nH]nc(-c4ccccc4O)c3C2c2cccc(Cl)c2)cc1 (centres undefined)
IC50 [1]: > 69.5 µM (inactive) | EC50 [2]: 17.6 µM (active) | EC50 [3]: 5.5 µM (active) | Absolute IC50 (XBP1) [4]: 10 µM | EC50 [5]: 17.1 µM (active)

NC(=O)c1cccc2c1C(=O)N(C1CCCCC1)C2
IC50 [6]: 12.5 µM (active) | IC50 [7]: > 79 µM (inactive)

COC(=O)C1=C(C)N(C)C(C)=C(C(=O)OC)C1c1ccc(C(=O)OC)cc1
IC50 [8]: > 50 µM (not active)

CC(C)c1nc2sc3c(S)ncnc3c2c2c1CCC2
CC50 [9]: 14.3 µM (active) | IC50 [10]: 42.2 µM (not active) | IC50 [11]: > 50 µM (not active)

Cc1ccc(CN2CCN(Cc3cccc(OCCO)c3)CC2CCO)o1 (centres undefined)
EC50 [12]: > 79.4 µM (not active) | EC50 [13]: > 79.4 µM (not active) | EC50 [14]: > 79.4 µM (not active) | EC50 [15]: > 195 µM (not active)

Cc1cc(N2CCCCCC2)nc(-c2ccccc2O)n1
CC50 [16]: > 40 µM (active)

CCc1ccc(/C=C2\SC(=S)N(CCC(=O)NC3=NCCS3)C2=O)cc1
IC50 [17]: > 80 µM (inactive)

O=C(CCCSc1ccccc1)Nc1nc(-c2ccco2)c(-c2ccco2)s1
IC50 [18]: 5.62 µM (active)

Cc1cc(C2(c3ccc(O)c(C)c3)C(=O)Nc3ccccc32)ccc1O
EC50 [19]: 17 µM (active) | AC50 [20]: 5.36 µM (active) | Absolute IC50 (XBP1) [4]: 10 µM | EC50 [21]: 17.4 µM (active)

C=CCn1c(SCC(=O)NCCCC)nc2scc(-c3ccco3)c2c1=O
IC50 [18]: 37.5 µM (not active)

Cc1cc(C)c(NC(=O)Cn2c(=O)n(-c3ccc(CC(=O)NCC4CCCO4)cc3)c(=O)c3ccccc32)c(C)c1 (centres undefined)
EC50 [22]: > 100 µM (not active)

CC(c1ccccc1)C(Cc1nc2ccccc2[nH]1)c1nc2ccccc2[nH]1 (centres undefined)
EC50 [22]: 61.3 µM (not active)

C#CCN(C)C(C)Cc1ccccc1 (centres undefined)
IC50 [8]: > 50 µM (not active)

CCOC(=O)c1s/c(=N\C(=O)c2cc(OC)c(OC)c(OC)c2)n(C)c1C
EC50 [12]: 42 µM (not active) | EC50 [13]: 30 µM (not active) | EC50 [14]: 49.7 µM (not active)

O=C(Nc1ccc(F)cc1)C1C(c2ccccc2)C1(Cl)Cl (centres undefined)
IC50 [10]: > 50 µM (not active) | IC50 [11]: > 50 µM (not active)

CN[C@H]1C[C@H]2O[C@@](C)([C@H]1OC)n1c3ccccc3c3c4c(c5c6ccccc6n2c5c31)C(=O)NC4
IC50 [23]: 0.183 µM (active)

O=C(Nc1ccncc1)Nc1cccc(Cl)c1Cl
EC50 [24]: < 0.1 µM (active) | EC50 [25]: 0.209 µM (active) | EC50 [26]: > 60 µM (not active)

CCN(CC)C(=O)Oc1ccc2c(c1)O/C(=C\c1ccco1)C2=O
EC50 [27]: > 120 µM (not active)

C=CCN1C=C/C(=C/c2ccc3cc(C)ccc3[n+]2CC)c2ccccc21
IC50 [28]: 7.64 µM (active) | IC50 [29]: 32.9 µM (active) | CC50 [30]: 4.96 µM (active)

CN(C)C=O.O=C(Nc1cccc(S(=O)(=O)NC2=NCCCCC2)c1)c1cc(-c2ccco2)nc2ccccc12
IC50 [31]: 6.77 µM (active) | IC50 [32]: 23.1 µM (active) | IC50 [33]: 1.69 µM (active) | IC50 [34]: > 49.8 µM (not active)

CN(Cc1ccccc1)C(=S)NC(=O)c1ccc(-c2ccccc2)cc1
CC50 [16]: > 40 µM (active)
